{
  "source": "ChEMBL document CHEMBL1201862",
  "about": "“PubChem BioAssay data set” (2004)",
  "key": {"Mucolipin-3": {"molecular_target": "Mucolipin-3 (Homo sapiens, UniProt Q8TDD5)", "sequence (Q8TDD5 whole entry)": "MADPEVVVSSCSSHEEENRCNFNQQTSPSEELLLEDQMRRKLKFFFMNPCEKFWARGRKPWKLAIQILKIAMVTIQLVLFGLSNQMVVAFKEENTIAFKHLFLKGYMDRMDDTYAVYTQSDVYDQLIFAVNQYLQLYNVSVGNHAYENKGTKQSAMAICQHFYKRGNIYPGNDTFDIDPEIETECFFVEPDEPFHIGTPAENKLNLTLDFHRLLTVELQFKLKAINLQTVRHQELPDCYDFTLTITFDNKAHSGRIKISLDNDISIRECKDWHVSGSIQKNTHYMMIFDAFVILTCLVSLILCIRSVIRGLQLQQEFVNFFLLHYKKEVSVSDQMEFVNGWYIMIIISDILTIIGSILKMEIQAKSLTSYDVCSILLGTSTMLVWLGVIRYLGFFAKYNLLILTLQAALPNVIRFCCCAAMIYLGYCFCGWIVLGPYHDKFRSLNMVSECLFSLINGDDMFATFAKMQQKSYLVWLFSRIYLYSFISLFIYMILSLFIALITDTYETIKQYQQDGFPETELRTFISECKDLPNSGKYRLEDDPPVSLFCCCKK", "experiment": "Dose response cell-based high-throughput screening assay for agonists of the transient receptor potential channel ML3 (TRPML3). [Related pubchem assays: 1526, 1424, 1448 ]", "type": "functional"}, "Ion channel NompC": {"molecular_target": "Ion channel NompC (Danio rerio, UniProt Q7T1G6)", "sequence (Q7T1G6 whole entry)": "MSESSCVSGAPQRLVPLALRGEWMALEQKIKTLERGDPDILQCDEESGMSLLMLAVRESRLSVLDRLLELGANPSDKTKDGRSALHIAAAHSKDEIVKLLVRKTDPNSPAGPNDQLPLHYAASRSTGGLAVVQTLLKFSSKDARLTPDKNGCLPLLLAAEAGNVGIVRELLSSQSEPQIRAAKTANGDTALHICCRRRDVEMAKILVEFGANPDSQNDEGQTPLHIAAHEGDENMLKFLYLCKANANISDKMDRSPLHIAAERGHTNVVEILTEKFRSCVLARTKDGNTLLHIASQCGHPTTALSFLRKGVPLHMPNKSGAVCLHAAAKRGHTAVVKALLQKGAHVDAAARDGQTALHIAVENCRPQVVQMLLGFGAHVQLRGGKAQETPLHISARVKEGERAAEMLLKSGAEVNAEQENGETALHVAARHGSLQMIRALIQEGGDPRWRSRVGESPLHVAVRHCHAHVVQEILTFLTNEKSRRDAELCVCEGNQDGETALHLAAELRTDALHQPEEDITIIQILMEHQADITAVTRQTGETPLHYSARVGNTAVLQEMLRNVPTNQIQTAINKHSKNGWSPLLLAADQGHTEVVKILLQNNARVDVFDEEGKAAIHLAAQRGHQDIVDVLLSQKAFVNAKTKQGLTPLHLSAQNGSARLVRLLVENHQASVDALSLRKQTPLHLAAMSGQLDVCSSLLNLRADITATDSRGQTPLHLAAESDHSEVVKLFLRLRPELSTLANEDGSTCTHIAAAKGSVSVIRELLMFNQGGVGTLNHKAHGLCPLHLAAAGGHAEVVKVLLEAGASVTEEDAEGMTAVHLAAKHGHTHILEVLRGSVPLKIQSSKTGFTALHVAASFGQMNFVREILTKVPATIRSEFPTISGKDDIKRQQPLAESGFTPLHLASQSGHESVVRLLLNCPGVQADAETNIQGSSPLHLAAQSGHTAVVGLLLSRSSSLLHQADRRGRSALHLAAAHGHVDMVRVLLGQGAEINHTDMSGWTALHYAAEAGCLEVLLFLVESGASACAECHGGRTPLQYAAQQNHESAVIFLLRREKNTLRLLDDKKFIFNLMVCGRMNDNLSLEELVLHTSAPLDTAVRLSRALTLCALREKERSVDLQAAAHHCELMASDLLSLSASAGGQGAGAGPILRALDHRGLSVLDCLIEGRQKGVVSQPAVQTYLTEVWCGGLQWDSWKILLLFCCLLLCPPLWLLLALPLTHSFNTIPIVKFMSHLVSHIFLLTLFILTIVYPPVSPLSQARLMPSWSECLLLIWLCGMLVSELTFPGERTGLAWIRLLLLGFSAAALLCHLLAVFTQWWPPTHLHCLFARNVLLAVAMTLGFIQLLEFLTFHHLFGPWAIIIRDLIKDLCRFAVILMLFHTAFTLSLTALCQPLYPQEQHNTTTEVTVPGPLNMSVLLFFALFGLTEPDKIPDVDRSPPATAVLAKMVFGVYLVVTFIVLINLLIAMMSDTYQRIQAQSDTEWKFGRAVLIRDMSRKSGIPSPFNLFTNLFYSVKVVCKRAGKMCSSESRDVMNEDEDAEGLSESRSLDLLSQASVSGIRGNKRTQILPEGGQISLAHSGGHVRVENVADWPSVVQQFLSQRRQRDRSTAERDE", "experiment": "Fluorescence counterscreen assay for TRPML3 agonists: dose response cell-based high-throughput screening assay to identify agonists of the transient receptor potential channel N1 (TRPN1). [Related pubchem assays: 1526, 1424, 1448 ]", "type": "functional"}, "Vero": {"test_system": "Vero", "experiment": "cytotoxicity of synthesized analogs in Vero cells, SAR follow-up, cytotoxicity control for West Nile virus antiviral project, cell-based, set II (AID 2402)", "type": "functional", "conditions": "Chlorocebus sabaeus"}, "[1]": {"molecular_target": "Melanin-concentrating hormone receptor 1 (Homo sapiens, UniProt Q99705)", "sequence (Q99705 whole entry)": "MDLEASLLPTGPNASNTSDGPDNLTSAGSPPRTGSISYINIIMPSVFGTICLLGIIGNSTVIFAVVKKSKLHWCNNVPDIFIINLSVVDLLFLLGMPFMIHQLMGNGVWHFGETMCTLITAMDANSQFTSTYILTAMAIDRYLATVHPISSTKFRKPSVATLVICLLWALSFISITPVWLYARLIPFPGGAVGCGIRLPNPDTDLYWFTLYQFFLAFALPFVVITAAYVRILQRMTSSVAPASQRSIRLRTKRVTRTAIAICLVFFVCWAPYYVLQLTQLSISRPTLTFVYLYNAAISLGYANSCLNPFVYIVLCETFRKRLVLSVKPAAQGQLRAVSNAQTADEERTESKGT", "experiment": "Fluorescence-based counterscreen for antagonists of the G-protein coupled receptor 7 (GPR7): cell-based high throughput dose response assay to identify antagonists of the melanin-concentrating hormone receptor 1 (MCHR1).", "type": "functional"}, "[2]": {"molecular_target": "T1, Neuropeptides B/W receptor type 1 (Homo sapiens, UniProt P48145)", "T1 sequence (P48145 whole entry)": "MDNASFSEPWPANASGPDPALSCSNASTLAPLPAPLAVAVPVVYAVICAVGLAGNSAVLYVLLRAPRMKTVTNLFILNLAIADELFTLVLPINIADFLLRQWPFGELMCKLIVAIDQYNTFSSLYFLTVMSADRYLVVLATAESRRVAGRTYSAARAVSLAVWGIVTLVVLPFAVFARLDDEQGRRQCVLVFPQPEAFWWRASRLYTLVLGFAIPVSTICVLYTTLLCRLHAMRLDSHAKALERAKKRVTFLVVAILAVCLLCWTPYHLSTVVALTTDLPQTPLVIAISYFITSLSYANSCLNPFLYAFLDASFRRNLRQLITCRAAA", "experiment": "Fluorescence-based dose response cell-based high throughput screening assay to identify antagonists of the G-protein coupled receptor 7 (GPR7). [Related pubchem assays: 1952 (Screening assay (GPR7 antagonists).), 1880 (Summary AID.)]", "type": "functional"}, "Estrogen receptor": {"molecular_target": "Estrogen receptor (Homo sapiens, UniProt P03372)", "sequence (P03372 whole entry, the tested form may be a part)": "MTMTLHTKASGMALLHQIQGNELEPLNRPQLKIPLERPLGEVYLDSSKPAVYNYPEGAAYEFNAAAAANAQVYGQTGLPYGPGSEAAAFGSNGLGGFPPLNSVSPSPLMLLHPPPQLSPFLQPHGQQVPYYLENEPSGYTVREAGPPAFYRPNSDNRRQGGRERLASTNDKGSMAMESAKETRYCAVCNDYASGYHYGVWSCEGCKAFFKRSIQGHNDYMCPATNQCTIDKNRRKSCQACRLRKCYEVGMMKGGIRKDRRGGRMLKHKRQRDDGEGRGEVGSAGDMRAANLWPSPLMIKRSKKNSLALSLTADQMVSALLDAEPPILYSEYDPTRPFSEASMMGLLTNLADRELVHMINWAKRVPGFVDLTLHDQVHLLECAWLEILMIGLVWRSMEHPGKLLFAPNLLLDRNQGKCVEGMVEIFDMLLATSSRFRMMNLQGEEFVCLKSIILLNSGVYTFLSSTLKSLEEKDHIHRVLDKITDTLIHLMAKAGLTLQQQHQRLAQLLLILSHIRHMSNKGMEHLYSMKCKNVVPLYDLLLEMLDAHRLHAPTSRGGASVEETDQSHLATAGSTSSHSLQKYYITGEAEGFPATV", "experiment": "potentiators of ERα–SRC-1 coactivator binding, dose response, biochemical, TR-FRET, ERα LBD (AID 737)"}, "[3]": {"molecular_target": "5-hydroxytryptamine receptor 1A (Homo sapiens, UniProt P08908)", "sequence (P08908 whole entry)": "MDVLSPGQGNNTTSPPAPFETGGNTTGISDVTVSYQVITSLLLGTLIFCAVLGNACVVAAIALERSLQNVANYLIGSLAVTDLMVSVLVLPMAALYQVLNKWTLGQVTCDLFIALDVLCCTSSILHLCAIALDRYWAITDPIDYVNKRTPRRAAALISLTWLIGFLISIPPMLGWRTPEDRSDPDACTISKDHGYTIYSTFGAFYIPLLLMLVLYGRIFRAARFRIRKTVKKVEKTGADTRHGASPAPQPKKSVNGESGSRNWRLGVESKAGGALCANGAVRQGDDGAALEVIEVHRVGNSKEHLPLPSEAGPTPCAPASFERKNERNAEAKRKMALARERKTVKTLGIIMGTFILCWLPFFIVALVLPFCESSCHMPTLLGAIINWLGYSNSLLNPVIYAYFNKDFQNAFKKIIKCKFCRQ", "type": "functional"}, "Bcl-2-related protein A1 [4]": {"molecular_target": "T2, Bcl-2-related protein A1 (Mus musculus, UniProt Q07440)", "T2 sequence (Q07440 whole entry)": "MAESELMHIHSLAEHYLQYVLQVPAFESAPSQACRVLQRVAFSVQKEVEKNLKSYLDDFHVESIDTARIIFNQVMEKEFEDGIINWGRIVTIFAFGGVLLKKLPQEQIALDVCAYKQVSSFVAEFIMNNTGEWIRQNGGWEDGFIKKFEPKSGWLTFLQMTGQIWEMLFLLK", "experiment": "Bfl-1 binding inhibitors, SAR follow-up, biochemical, fluorescence polarization (AID 1070)"}, "Bcl-2-related protein A1 [5]": {"molecular_target": "T2, Bcl-2-related protein A1", "experiment": "Bfl-1 inhibitors blocking BH3 peptide binding, confirmation, biochemical, TR-FRET, mouse Bfl-1 (AID 621);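 further: TR-FRET binding of GST-Bfl-1 to FITC-labelled Bid peptide via terbium antibody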"}, "[6]": {"experiment": "M. tuberculosis growth inhibition, HTS (AID 449762)", "type": "functional"}},
  "note": "Calls of active or inactive are those of the source.",
  "data": [
    {"smiles": "Cc1ccc(S(=O)(=O)N(C)c2cc(S(=O)(=O)N3CCC(C)CC3)c(C)cc2C)cc1", "values": [
      {"measurement": "EC50", "setting": "Mucolipin-3", "value": "2.06 µM (active)"},
      {"measurement": "EC50", "setting": "Ion channel NompC", "value": "> 29.9 µM (not active)"}
    ]},
    {"smiles": "CC1CC(C)CN(C(=O)CSc2nc3ccccc3c(=O)n2-c2ccc(F)cc2)C1", "note": "(stereo not given)", "values": [
      {"measurement": "CC50", "setting": "Vero", "value": "> 100 µM (active)"}
    ]},
    {"smiles": "CCC(C)(C(=O)NC1CCCC1)N(Cc1ccco1)C(=O)c1ccc2c(c1)OCO2", "note": "(stereo not given)", "values": [
      {"measurement": "IC50", "setting": "[1]", "value": "> 43.8 µM (not active)"},
      {"measurement": "IC50", "setting": "[2]", "value": "> 43.8 µM (not active)"}
    ]},
    {"smiles": "COCCCn1c2nc3ccccc3nc2c2c(=O)n(-c3ccccc3OC)c(C)nc21", "values": [
      {"measurement": "EC50", "setting": "Estrogen receptor", "value": "12.7 µM (not active)"}
    ]},
    {"smiles": "COC(=O)CC(=O)Cc1nc(N)nc(Nc2ccc(C)c(C)c2)n1", "values": [
      {"measurement": "EC50", "setting": "[3]", "value": "> 50 µM (not active)"}
    ]},
    {"smiles": "Cc1ccc(-n2nnc(-c3cc4ccccc4nc3Cl)n2)cc1", "values": [
      {"measurement": "IC50", "setting": "Bcl-2-related protein A1 [4]", "value": "> 100 µM (not active)"},
      {"measurement": "IC50", "setting": "Bcl-2-related protein A1 [5]", "value": "> 100 µM (not active)"}
    ]},
    {"smiles": "CCOC(=O)c1ccc(NC(=O)CSc2ccc(-c3cccnc3)nn2)cc1", "values": [
      {"measurement": "IC50", "setting": "[6]", "value": "> 100 µM (active)"}
    ]}
  ]
}
